From patent publication US4230708A (priority 1977, dated 1980)
In brackets after ≈: the same amount, converted by molar mass. Where two headings read alike, the source gives them in different places.

Columns and labels:
[1] = system: VSV, vaccinia and herpes simplex-1 (KOS); type: cell-based, vaccinia and herpes simplex-1 (KOS) viruses; settings: for Antiviral activity of congeners: at 100 μg/ml (the highest level tested), PRK cells; for Antiviral activity of enantiomers and racemate: VSV/PRK, vaccinia/PRK, herpes simplex-1 (KOS)/PRK
Stability = type: physicochemical
adenosine deaminase = adenosine deaminase (Bos taurus, UniProt P56658); assay: Deamination of ara-A by adenosine deaminase of calf intestinal mucosa (FIG. 3, FIG. 4); type: biochemical; settings: for Decrease in absorbance at 265 nm (extent of deamination): FIG. 3A
adenosine deaminase, sequence (P56658 whole entry): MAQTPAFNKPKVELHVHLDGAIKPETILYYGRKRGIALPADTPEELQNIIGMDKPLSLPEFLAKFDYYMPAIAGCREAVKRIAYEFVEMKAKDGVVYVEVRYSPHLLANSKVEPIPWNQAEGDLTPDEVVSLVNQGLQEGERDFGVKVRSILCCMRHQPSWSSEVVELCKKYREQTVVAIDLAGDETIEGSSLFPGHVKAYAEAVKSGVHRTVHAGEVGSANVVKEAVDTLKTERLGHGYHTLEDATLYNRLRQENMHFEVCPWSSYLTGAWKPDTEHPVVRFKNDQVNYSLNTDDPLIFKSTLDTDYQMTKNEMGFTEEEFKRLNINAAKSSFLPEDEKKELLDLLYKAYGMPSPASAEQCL
Experimental: FIG. 3 is a graphical representation showing the inhibitory effect of (S)-DHPA on deamination of ara-A by adenosine deaminase of calf intestinal mucosa. Deamination of ara-A was measured according to the method of Kalckar (compare J. Biol. Chem., 167, 461, […]), modified by Trams and Lauter (compare Biochem. J., 152, 681, 1975). The extent of deamination is equivalent to the decrease of absorbance at λ (wavelength)=265 nm. The decrease in absorbance at 265 nm was 0.11 if 50 nmol of ara-A were used, and was 0.16 if 100 nmol of ara-A were used (FIG. 3A).

Vaccinia = assay: microbe, parasite or virus in culture; type: cell-based; settings: Orthopoxvirus vaccinia, read-out: ID50
[2] = system: vesicular stomatitis virus; type: in vivo, NMRI mice; settings: for Final number of surviving mice: control 37.5%
[3] = system: vesicular stomatitis virus; assay: microbe, parasite or virus in culture; type: cell-based; settings: HSF, read-out: Decrease of virus titer compared with control
vaccinia virus = type: cell-based; settings: for Virus yield: (S)-DHPA 30 μg/ml, ara-A 3 μg/ml, or both
Vesicular stomatitis = assay: microbe, parasite or virus in culture; type: cell-based; settings: read-out: ID50
Coxsackie B-4 = type: cell-based, Coxsackie B-4 virus; settings: HeLa cells; 100 CCID50; read-out: ID50 (the source's name)
Experimental: The antiviral activity of (S)-DHPA was explored in a variety of cell cultures and with a variety of DNA and RNA viruses such as listed in Table 1. The cells of each cell culture were inoculated with a certain virus in a dose of about 100 CCID50, that is about 100 times the dose needed to infect 50% of the cells. One hour after inoculation, (S)-DHPA was added in varying doses from zero to 40 μg/ml and sometimes to more than 200 μg/ml. For each virus-cell system, the ID50 of (S)-DHPA, that is the dose of (S)-DHPA needed to suppress the cytopathic effect of the virus by 50%, was determined. This cytopathic effect (CPE) was measured in the untreated virus-infected cell cultures [(S)-DHPA dose 0] and recorded as soon as it reached completion (according to the method described by L. J. Rosenthal and I. L. Shechmaister, in "Tissue Culture", page 510, Academic Press, New York, 1973).

Measles = assay: microbe, parasite or virus in culture; type: cell-based; settings: Measles morbillivirus, Vero; read-out: ID50 (the source's name)
Acute toxicity in mice = type: in vivo
Polio-1 = assay: microbe, parasite or virus in culture; type: cell-based, polio virus type 1; settings: read-out: ID50
Sindbis = assay: microbe, parasite or virus in culture; type: cell-based; settings: BHK, read-out: ID50 (the source's name)
DNA viruses; RNA viruses = settings: known from literature; cited from earlier work
[4] = cited from earlier work
[5] = repeated doses of 0.4 mg/mouse (about 27 mg/kg)
[6] = 1 day after infection, control 3.6
[7] = 2 days after infection, control 5.0
[8] = 3 days after infection, control 5.3

SMILES: Nc1ncnc2c1ncn2CC(N)C(=O)O (racemic) [9-(β-DL-alanyl)-adenine]
- Antiviral activity of congeners [1]: did not demonstrate an antiviral activity

SMILES: Nc1ncnc2c1ncn2CC(O)CO (racemic) [(RS)-DHPA, (RS)-9-(2,3-dihydroxypropyl)adenine]
- Stability in pure form (Stability): practically unlimited
- Stability (thermic sterilization of neutral, weakly acid or weakly alkaline solutions possible) (Stability): remarkable stability
- Antiviral activity of enantiomers and racemate [1]: almost as effective as the (S)-enantiomer
- Antiviral activity of enantiomers and racemate ([1]; listed as RS-form): almost as effective as the S-form

SMILES: O=c1ccn(CCC(O)CCO)c(=O)[nH]1 (racemic) [RS-1-(3,5-dihydroxypentyl)uracil]
- Antiviral activity of congeners [1]: did not demonstrate an antiviral activity

SMILES: CC(O)Cn1cnc2c(N)ncnc21 (racemic) [RS-9-(2-hydroxypropyl)adenine]
- Antiviral activity of congeners [1]: did not demonstrate an antiviral activity

SMILES: Nc1ncnc2c1ncn2CCC(O)CO (racemic) [RS-9-(3,4-dihydroxybutyl)-adenine]
- Antiviral activity of congeners [1]: did not demonstrate an antiviral activity

SMILES: Nc1ncnc2c1ncn2CCC(O)CCO (racemic) [RS-9-(3,5-dihydroxypentyl)adenine]
- Antiviral activity of congeners [1]: did not demonstrate an antiviral activity

SMILES: Nc1ncnc2c1ncn2C[C@H](O)[C@@H](O)CO (relative stereo) [RS-threo-9-(2,3,4-trihydroxybutyl)adenine]
- Antiviral activity of congeners [1]: did not demonstrate an antiviral activity

SMILES: Nc1ncnc2c1ncn2C(CO)CO [2-(9-adeninyl)propane-1,3-diol]
- Antiviral activity of congeners [1]: did not demonstrate an antiviral activity

SMILES: NCCn1cnc2c(N)ncnc21 [9-(2-aminoethyl)adenine]
- Antiviral activity of congeners [1]: did not demonstrate an antiviral activity

SMILES: Nc1ncnc2c1ncn2CCO [9-(2-hydroxyethyl)adenine]
- Antiviral activity of congeners [1]: did not demonstrate an antiviral activity

SMILES: Nc1ncnc2c1ncn2CCCO [9-(3-hydroxypropyl)adenine]
- Antiviral activity of congeners [1]: did not demonstrate an antiviral activity

SMILES: Nc1ncnc2c1ncn2C[C@@H](O)CO [(R)-DHPA]
- Antiviral activity of enantiomers and racemate ([1]; listed as R-enantiomeric form): not

SMILES: Nc1ncnc2c1ncn2C[C@H](O)CO [(S)-DHPA, (S)-9-(2,3-dihydroxypropyl)adenine]
- Concentration dependence of inhibition of ara-A deamination (adenosine deaminase; absorbance decrease at 265 nm): inhibited proportionally to the concentration of (S)-DHPA
- Inhibition of deamination of ara-A (adenosine deaminase; adenosine deaminase extracted from calf intestinal mucosa): strongly inhibited
- Stability in pure form (Stability): practically unlimited
- Stability (thermic sterilization of neutral, weakly acid or weakly alkaline solutions possible) (Stability): remarkable stability
- EC50 (Vaccinia; Skin fibroblast): 10 to 20 µg/mL (≈ 47.8 to 95.6 µM)
- EC50 (Vaccinia; in Oryctolagus cuniculus): 10 to 20 µg/mL (≈ 47.8 to 95.6 µM)
- Final number of surviving mice ([2]; 2 mg/mouse (about 133 mg/kg) i.p. at 1 h and 1, 2, 3, 4 days): 67%
- Increase in final number of surviving mice vs control ([2]; 2 mg/mouse i.p., repeated): significant increase
- Difference in number of survivors at 9 days vs control ([2]; 2 mg/mouse i.p., repeated, 9 days after infection): significant
- Protection ([2]; repeated doses of 0.08 mg/mouse (about 5.4 mg/kg)): did not confer protection
- Protection [2, 5]: slight protection
- Final number of surviving mice [2, 5]: 55%
- Antiviral activity of enantiomers and racemate [1]: active
- log reduction at 100 µg/mL ([3]; 24 h): ~4
- log reduction at 100 µg/mL ([3]; 48 h): ~4
- Virus yield (vaccinia virus; [6]): 3.6 log10 PFU/ml
- Virus yield (vaccinia virus; [7]): 4.9 log10 PFU/ml
- Virus yield (vaccinia virus; [8]): 5.4 log10 PFU/ml
- Potentiation of antiviral activity of ara-A (vaccinia virus; PRK cells, vaccinia virus): markedly potentiated the antiviral activity of ara-A
- EC50 (Vesicular stomatitis; HSF): 2 to 7 µg/mL (≈ 9.56 to 33.5 µM)
- EC50 (Vesicular stomatitis; HeLa): > 200 µg/mL
- EC50 (Vesicular stomatitis; PRK): 7 to 10 µg/mL (≈ 33.5 to 47.8 µM)
- EC50 (Coxsackie B-4): > 200 µg/mL
- EC50 (Measles): 4 to 40 µg/mL (≈ 19.1 to 191 µM)
- Survival in acute toxicity test (LD50 could not be determined) (Acute toxicity in mice; doses up to 1000 mg/kg/day for 3 to 5 days): all mice survived (without any sign of illness)
- Acute toxicity (Acute toxicity in mice; general statement): very low acute toxicity
- EC50 (Polio-1; HSF): > 200 µg/mL
- EC50 (Polio-1; HeLa): > 200 µg/mL
- EC50 (Sindbis): > 200 µg/mL

SMILES: Cc1cn(C[C@@H](O)CO)c(=O)[nH]c1=O [R-1-(2,3-dihydroxypropyl)-thymine]
- Antiviral activity of congeners [1]: did not demonstrate an antiviral activity

SMILES: Cc1cn(C[C@H](O)CO)c(=O)[nH]c1=O [S-1-(2,3-dihydroxypropyl)thymine]
- Antiviral activity of congeners [1]: did not demonstrate an antiviral activity

SMILES: O=c1ccn(C[C@H](O)CO)c(=O)[nH]1 [S-1-(2,3-dihydroxypropyl)uracil]
- Antiviral activity of congeners [1]: did not demonstrate an antiviral activity

SMILES: O=c1ccn(CC[C@H](O)CO)c(=O)[nH]1 [S-1-(3,4-dihydroxybutyl)-racil]
- Antiviral activity of congeners [1]: did not demonstrate an antiviral activity

SMILES: Cc1c[nH]c(=O)n(C[C@H](O)CO)c1=O [S-3-(2,3-dihydroxypropyl)thymine]
- Antiviral activity of congeners [1]: did not demonstrate an antiviral activity

SMILES: O=c1[nH]cnc2c1ncn2C[C@H](O)CO [S-9-(2,3-dihydroxypropyl)hypoxanthine]
- Antiviral activity of congeners [1]: did not demonstrate an antiviral activity

SMILES: Nc1ncnc2c1ncn2CC[C@H](O)CO [S-9-(3,4-dihydroxybutyl)adenine]
- Antiviral activity of congeners [1]: did not demonstrate an antiviral activity

SMILES: Nc1ncnc2c1ncn2[C@@H]1O[C@H](CO)[C@@H](O)[C@@H]1O [ara-A, 9-(beta-D-arabinofuranosyl)-adenine, reference compound]
- Decrease in absorbance at 265 nm (extent of deamination) (adenosine deaminase; 50 nmol of ara-A): 0.11
- Decrease in absorbance at 265 nm (extent of deamination) (adenosine deaminase; 100 nmol of ara-A): 0.16
- Antiviral activity (DNA viruses; RNA viruses): marked antiviral activity but only for some DNA viruses
- Virus yield (vaccinia virus; [6]): 2.1 log10 PFU/ml
- Virus yield (vaccinia virus; [7]): 4.0 log10 PFU/ml
- Virus yield (vaccinia virus; [8]): 5.0 log10 PFU/ml

SMILES: NC(=O)c1ncn([C@@H]2O[C@H](CO)[C@@H](O)[C@H]2O)n1 [ribavirin, (1-beta-D-ribofuranosyl)-1,2,4-triazole-3-carboxamide]
- Antiviral activity (DNA viruses; RNA viruses): broad-spectrum antiviral activity
- Safety margin ([4]; known from literature): rather narrow safety margin
- Toxicity ([4]; known): high toxicity
